pIC50, pKi: −log10 of the molar value. Activity calls are given as the source filed them. The rule behind the calls is not given here.
Legend:
[1] = system: Mus musculus; assay: In vivo inhibition of RAF in human HCT116 cells xenografted in NCR mouse assessed as inhibition of DUSP6 gene expression at 5 mg/kg, po qd for 4 days measured upto 24 hrs of last dose; format: functional, organism-based; settings: time 4.0 day
[2] = system: Mus musculus; assay: In vivo inhibition of RAF in human HCT116 cells xenografted in NCR mouse assessed as inhibition of SPRY4 gene expression at 5 mg/kg, po qd for 4 days measured upto 24 hrs of last dose; format: functional, organism-based; settings: time 4.0 day
[3] = system: A549; assay: Synergistic antiproliferative activity against human A549 cells harboring KRAS mutant assessed as reduction in cell viability in presence of 100 nM cobi-metinib; format: functional, cell-based
[4] = system: A549; assay: Antiproliferative activity against human A549 cells harboring KRAS mutant assessed as reduction in cell viability; format: functional, cell-based
[5] = biological target: Serine/threonine-protein kinase B-raf (Homo sapiens, UniProt P15056); assay: Inhibition of BRAF (unknown origin) (416 to 766) assessed as using inactive phosphorylated MAP2K1 substrate preincubated for 30 mins measured after 90 mins by DELFIA assay
[6] = biological target: RAF proto-oncogene serine/threonine-protein kinase (Homo sapiens, UniProt P04049, Y340D/Y341D); assay: Inhibition of CRAF Y340D/Y341D mutant (unknown origin) assessed as using inactive phosphorylated MAP2K1 substrate preincubated for 30 mins measured after 90 mins by DELFIA assay
[7] = Efflux ratio of permeability across basolateral to apical side over apical to basolateral side in MDCK cells; format: ADME, cell-based, Canis lupus familiaris; settings: dog
[8] = Apparent permeability across apical to basolateral side in MDCK cells; format: ADME, cell-based, Canis lupus familiaris; settings: dog
[9] = Clearance in mouse at 1 mg/kg, iv; format: ADME, organism-based; settings: in vivo
[10] = Half life in mouse; format: ADME, organism-based; settings: in vivo
[11] = system: A-375; assay: Antiproliferative activity against human A375 cells harboring BRAF mutant assessed as reduction in cell viability; format: functional, cell-based
[12] = Oral bioavailability in mouse at 5 mg/kg; format: ADME, organism-based; settings: in vivo
[13] = Volume of distribution in mouse at 1 mg/kg, iv; format: ADME, organism-based; settings: in vivo
[14] = system: Mus musculus; assay: In vivo inhibition of RAF in human HCT116 cells xenografted in NCR mouse assessed as inhibition of SPRY4 gene expression in presence of Cobi-metinib at 15 mg/kg, po qd for 4 days measured at 24 hrs of last dose; format: functional, organism-based; settings: time 4.0 day
[15] = system: Mus musculus; assay: In vivo inhibition of RAF in human HCT116 cells xenografted in NCR mouse assessed as inhibition of pRSK gene expression in presence of Cobi-metinib at 15 mg/kg, po qd for 4 days measured upto 8 hrs of last dose; format: functional, organism-based; settings: time 4.0 day
[16] = system: Mus musculus; assay: In vivo inhibition of RAF in human HCT116 cells xenografted in NCR mouse assessed as inhibition of SPRY4 gene expression in presence of Cobi-metinib at 15 mg/kg, po qd for 4 days measured upto 8 hrs of last dose; format: functional, organism-based; settings: time 4.0 day
[17] = system: Mus musculus; assay: In vivo inhibition of RAF in human HCT116 cells xenografted in NCR mouse assessed as inhibition of DUSP6 gene expression in presence of Cobi-metinib at 15 mg/kg, po qd for 4 days measured at 24 hrs of last dose; format: functional, organism-based; settings: time 4.0 day
[18] = system: Mus musculus; assay: In vivo inhibition of RAF in human HCT116 cells xenografted in NCR mouse assessed as inhibition of SPRY4 gene expression at 15 mg/kg, po qd for 4 days measured upto 24 hrs of last dose; format: functional, organism-based; settings: time 4.0 day
[19] = system: Mus musculus; assay: In vivo inhibition of RAF in human HCT116 cells xenografted in NCR mouse assessed as inhibition of DUSP6 gene expression at 15 mg/kg, po qd for 4 days measured upto 24 hrs of last dose; format: functional, organism-based; settings: time 4.0 day
[20] = system: Mus musculus; assay: In vivo inhibition of RAF in human HCT116 cells xenografted in NCR mouse assessed as inhibition of DUSP6 gene expression in presence of Cobi-metinib at 15 mg/kg, po qd for 4 days measured upto 8 hrs of last dose; format: functional, organism-based; settings: time 4.0 day
[21] = system: Mus musculus; assay: In vivo inhibition of RAF in human HCT116 cells xenografted in NCR mouse assessed as inhibition of pRSK gene expression in presence of Cobi-metinib at 15 mg/kg, po qd for 4 days measured at 24 hrs of last dose; format: functional, organism-based; settings: time 4.0 day

Chain of RAF proto-oncogene serine/threonine-protein kinase (P04049 whole entry Y340D/Y341D): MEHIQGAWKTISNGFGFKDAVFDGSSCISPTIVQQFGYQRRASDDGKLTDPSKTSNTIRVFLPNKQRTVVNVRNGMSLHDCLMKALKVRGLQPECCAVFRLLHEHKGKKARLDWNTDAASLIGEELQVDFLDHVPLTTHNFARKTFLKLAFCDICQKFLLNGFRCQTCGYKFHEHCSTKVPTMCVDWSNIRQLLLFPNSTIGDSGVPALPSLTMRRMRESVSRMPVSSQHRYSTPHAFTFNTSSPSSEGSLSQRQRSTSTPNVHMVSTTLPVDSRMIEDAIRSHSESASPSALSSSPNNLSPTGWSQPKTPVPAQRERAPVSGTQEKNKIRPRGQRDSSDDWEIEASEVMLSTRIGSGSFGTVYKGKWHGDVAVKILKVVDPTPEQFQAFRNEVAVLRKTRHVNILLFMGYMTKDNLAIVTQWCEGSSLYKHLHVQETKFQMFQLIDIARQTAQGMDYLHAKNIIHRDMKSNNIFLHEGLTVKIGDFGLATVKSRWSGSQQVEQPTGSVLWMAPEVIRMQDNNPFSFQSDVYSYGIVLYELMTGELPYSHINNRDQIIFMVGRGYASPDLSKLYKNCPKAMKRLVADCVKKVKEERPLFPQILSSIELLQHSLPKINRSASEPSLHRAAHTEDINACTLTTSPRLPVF
Chain of Serine/threonine-protein kinase B-raf (P15056 whole entry): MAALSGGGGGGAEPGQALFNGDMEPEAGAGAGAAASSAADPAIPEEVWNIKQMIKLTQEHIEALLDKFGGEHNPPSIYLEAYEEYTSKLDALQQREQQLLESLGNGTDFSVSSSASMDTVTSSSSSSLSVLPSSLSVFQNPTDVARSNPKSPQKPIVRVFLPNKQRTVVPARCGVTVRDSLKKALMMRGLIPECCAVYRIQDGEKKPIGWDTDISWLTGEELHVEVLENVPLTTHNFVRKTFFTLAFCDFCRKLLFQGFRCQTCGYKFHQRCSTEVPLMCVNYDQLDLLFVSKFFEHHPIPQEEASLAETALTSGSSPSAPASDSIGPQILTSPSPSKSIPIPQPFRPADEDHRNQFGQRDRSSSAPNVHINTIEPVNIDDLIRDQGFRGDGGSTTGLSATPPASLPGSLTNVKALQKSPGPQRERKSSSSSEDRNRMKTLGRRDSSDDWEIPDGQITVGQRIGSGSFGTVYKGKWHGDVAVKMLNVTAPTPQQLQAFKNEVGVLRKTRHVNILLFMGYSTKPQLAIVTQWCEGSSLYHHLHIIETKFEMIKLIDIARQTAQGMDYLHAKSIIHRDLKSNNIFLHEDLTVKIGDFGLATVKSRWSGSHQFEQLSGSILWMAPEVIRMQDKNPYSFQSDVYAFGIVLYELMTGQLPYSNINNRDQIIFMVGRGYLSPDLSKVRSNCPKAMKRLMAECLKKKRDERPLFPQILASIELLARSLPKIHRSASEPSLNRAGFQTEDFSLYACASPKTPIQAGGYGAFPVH

pIC50 [3] | pIC50 [4] | pKi [5] | pKi [6] | efflux ratio [7] | Papp A→B [8] | pIC50 [11] | SMILES | also measured
 |  |  |  |  |  |  | O=C(c1ccc(F)c(F)c1Nc1ccc(I)cc1F)N1CC(O)([C@@H]2CCCCN2)C1 | inhibition [1]: Active; inhibition [2]: Active
5.95 | 5.11 | 9.92 | 10.22 | 0.74 | 8.1 ×10⁻⁶ cm/s |  | Cc1cc(F)c(C(=O)NCCCC(C)(C)C)cc1-c1ccc2c(=O)n(C)ncc2c1 | 
6.73 | 5.80 | > 10.10 | > 10.30 | 0.5 | 8.7 ×10⁻⁶ cm/s | 6.68 | Cc1cc(F)c(NC(=O)NCCC(C)(C)C)cc1-c1ccc2c(=O)n(C)ncc2c1 | clearance [9]: 22 mL/min/kg; half-life [10]: 1.3 h; bioavailability [12]: 2%; Vd [13]: 2.1 L/kg
5.54 | 5.54 | > 10.10 |  |  |  |  | Cc1cc(F)c(NC(=O)NCCC(C)(C)C)cc1Nc1ccc2ncn(C)c(=O)c2c1F | 
6.43 | 5.26 | 9.72 | 10.21 | 0.86 | 14 ×10⁻⁶ cm/s |  | Cc1cc(F)c(NC(=O)c2cccc(C(C)(C)C#N)c2)cc1-c1cnc2c(=O)n(C)ncc2c1 | clearance [9]: 17 mL/min/kg; inhibition [14]: inactive; inhibition [15]: Active; half-life [10]: 1.9 h; inhibition [16]: Active; inhibition [17]: inactive; inhibition [18]: Active; bioavailability [12]: 37%; inhibition [19]: Active; inhibition [20]: Active; inhibition [21]: inactive; Vd [13]: 1.7 L/kg
6.86 | 5.87 | > 10.10 | > 10.30 | 1 | 7.8 ×10⁻⁶ cm/s |  | Cc1cc(F)c(NC(=O)c2cccc(C(C)(C)C#N)c2)cc1-c1ccc2c(=O)n(C)ncc2c1 | 
7.41 | 6.47 | 9.99 | 10.09 |  |  | 7.49 | CNc1ncc2cc(-c3cc(NC(=O)NCCC(C)(C)C)c(F)cc3C)c(=O)n(C)c2n1 | 
7.34 | 6.26 |  |  |  |  | 7.55 | CNc1ncc2cc(-c3cc(NC(=O)NCCC(C)(C)C)c(F)cc3C)c(C)nc2n1 [LY-3009120] | 
6.83 | 6.18 | > 10.10 | > 10.30 |  |  | 6.65 | Cc1cc(F)c(NC(=O)NCCC(C)(C)C)cc1-c1ccc2cc(N)ncc2c1 | 

Source: ChEMBL document CHEMBL4706748, “Targeting KRAS Mutant Cancers via Combination Treatment: Discovery of a Pyridopyridazinone pan-RAF Kinase Inhibitor” (ACS Med Chem Lett, 2021)
